For assay [1], the system named is Rac1. The experiment in a line: Rac1 activation assay (G-LISA). The class given is cell-based. Conditions: cells incubated 2 minutes at 1 and 10 μg/mL. Here is the method: Cell cultures were incubated with each tested compound for 2 minutes at concentrations of 1 and 10 μg/mL, after which the cells were tested for Rac1 activation using a G-LISA activation assay. The cells were lysed and the lysates introduced into wells containing Rac-GTP-binding protein, then sequentially incubated with anti-Rac1 antibody and a horseradish peroxidase-linked secondary antibody. The amount of horseradish peroxidase was then quantitated to evaluate the Rac1 activation potency of each compound studied.

The target in assay [2] is T1, PTPRS catalytic domains (D1D2) (Homo sapiens, UniProt Q13332).
T1 construct: The two interacellular catalytic domains (D1D2) of PTPRS were cloned into a pET28a vector; made in house; host or cells: E. coli BL21
T1 sequence (Q13332 1304-1948 limits assumed): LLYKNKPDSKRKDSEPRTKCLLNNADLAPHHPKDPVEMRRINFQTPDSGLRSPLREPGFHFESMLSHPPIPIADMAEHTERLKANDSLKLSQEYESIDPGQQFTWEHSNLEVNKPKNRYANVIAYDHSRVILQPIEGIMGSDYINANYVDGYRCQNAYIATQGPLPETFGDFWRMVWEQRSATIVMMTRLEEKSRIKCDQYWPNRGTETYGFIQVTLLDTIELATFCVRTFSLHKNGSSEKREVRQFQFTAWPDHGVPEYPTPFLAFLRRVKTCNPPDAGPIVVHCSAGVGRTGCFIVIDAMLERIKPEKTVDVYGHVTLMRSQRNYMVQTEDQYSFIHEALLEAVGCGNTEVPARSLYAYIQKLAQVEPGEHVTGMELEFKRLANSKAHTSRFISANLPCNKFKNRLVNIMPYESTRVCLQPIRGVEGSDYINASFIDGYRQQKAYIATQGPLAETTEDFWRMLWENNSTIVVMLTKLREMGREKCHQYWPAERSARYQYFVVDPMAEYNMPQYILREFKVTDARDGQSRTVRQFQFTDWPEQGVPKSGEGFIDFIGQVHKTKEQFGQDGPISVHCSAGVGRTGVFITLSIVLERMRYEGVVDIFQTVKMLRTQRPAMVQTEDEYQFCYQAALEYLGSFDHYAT
The experiment in a line: In vitro phosphatase assay (modified Malachite Green Assay). The class given is biochemical. Conditions: for IC50: 50 nM PTPRS, 100 uM Tyr Phosphopeptide, 15 min preincubation. As for the experimental part:
The two interacellular catalytic domains (D1D2) of PTPRS were cloned into a pET28a vector and overexpressed in E. coli BL21 and purified as described in Jeon T J, et al. Structure of the Catalytic Domain of Protein Tyrosine Phosphatase Sigma in the Sulfenic Acid Form. Molecules and Cells. 2013; 36(1):55-61. doi:10.1007/s10059-013-0033-x. Enzymatic activity of PTPRS was assayed using a modified version of the Malachite Green Assay (described in Lorenz U. Protein Tyrosine Phosphatase Assays. Current protocols in immunology/edited by John E Coligan. [et al]. 2011; CHAPTER:Unit-11.7. doi:10.1002/0471142735.im1107s93) and the Tyrosine Phosphatase Assay Kit (Promega Coorperation). Unless stated otherwise, standard assays were carried out using 50 nM PTPRS protein in 1× Buffer (10 mM Tris, 5 mM MgCl2, 10 mM NaCl, 0.02% Tween) and Tyr Phosphopeptide as substrate (100 uM for FIG. 1 and 50-1200 uM in FIG. 2). Catalytic domains D1D2 were preincubated with the test compound or control for 15 min in the wells of a 96 well plate before the addition of 100 uM Tyr Phosphopeptide (DADA(pY)LIPQQG).
For IC50 determination, rates normalized relative to uninhibited controls (DMSO) were plotted against compound concentration and fitted using a four-parameter nonlinear regression curve fit ((y=[(A−D) (1+{xC−1}B)−1]+D), (Prism 6.0, Graphpad Software). For mechanism studies and determination of the enyzme's Km and Vmax, data were analyzed using a nonlinear regression fit according to classical Mechaelis-Menten kinetics model Y=Vmax*X/(Km+X) (Prism 6.0, Graphpad Software).

Assay [3] relates to hematopoietic colony formation. Put plainly: Hematopoietic colony formation. The class given is cell-based.
For a further assay, the system named is irradiated mice. The experiment in a line: Survival and HSC regeneration of irradiated mice. It is filed as in vivo. The note with it: for Survival of irradiated mice: irradiated mice (DJ001: 750 cGy, lethal dose). The text has this:
(§1) A) CFU-GEMMs produced by TSF media vs. TSF+GJ001 (p=0.001). B) Percentage of BM KSL cells expressing Rac1 GTP (p=0.008). C) Survival of mice irradiated with 750 cGy followed by treatment with DJ001 or vehicle (p=0.0007). D) % BM KSL cells (blue) and % ckit^+sca-1^−lin^− progenitors (gray) at day+21 in irradiated mice.

Assay [4] deals with Rac1. Put plainly: Rac1 signaling in HSCs (BM KSL cells expressing Rac1 GTP, FIG. 1). It is filed as cell-based.
Description: as §1

Molecules are shown by their SMILES.

As for `Cc1cc(C)cc(N/C=C\C(=O)c2ccccc2)c1` [DJ011], the “Rac1 Activation” value in the assay with Rac1 [1] is reported as “yes”.

For the compound `CCCCN/C=C\C(=O)c1ccccc1` [DJ017], the “Rac1 Activation” value in the assay on Rac1 [1] is recorded as “no”.

Consider `CC(C)(C)N/C=C\C(=O)c1ccccc1` [DJ019], for which the “Rac1 Activation” value in the assay with Rac1 [1] is reported as “no”.

On to `O=C(c1ccccc1)c1ccccc1Nc1cccc([N+](=O)[O-])c1` [DJ027], for which the IC50 in assay [2] is 910 nM.

Regarding `O=C(/C=C\Nc1cccc(C(F)(F)F)c1)c1ccccc1` [DJ003], the “Rac1 Activation” value in the assay on Rac1 [1] is on record as “yes”. Besides, the Hematopoietic colony formation result in assay [3] is on record as “increases hematopoietic colony formation”. Moreover, the “Survival of irradiated mice” value in the assay on irradiated mice was “improves survival of irradiated mice”. In assay [2], this compound displayed an IC50 of 1060 nM.

In the case of `CN(C)S(=O)(=O)c1cccc(N/C=C\C(=O)c2ccccc2)c1` [DJ016], in the assay on Rac1 [1], the “Rac1 Activation” value is reported as “no”.

`O=C(/C=C\Nc1cccc([N+](=O)[O-])c1)c1ccccc1` [DJ001]: the “Rac1 Activation” value with Rac1 [1] is recorded as “yes”. Moreover, in the assay on irradiated mice (irradiated mice), the “HSC regeneration in irradiated mice” value was “accelerates HSC regeneration in irradiated mice”. For the same compound, the “Survival of irradiated mice” value with irradiated mice is listed as “dramatically increases mice survival following lethal dose irradiation”. Besides, the “Rac1 signaling in HSCs” value in the assay on Rac1 [4] was “activates Rac1 signaling in HSCs”. This compound also came in with a half-inhibitory concentration (IC50) in assay [2] of 1430 nM. Moreover, in assay [2] (substrate titration, Michaelis-Menten fit), the “Mechanism of inhibition (substrate titration of PTPσ, Vmax and Km)” value was “classical noncompetitive inhibitor”.

Consider `Cc1cccc(N/C=C\C(=O)c2ccccc2)c1` [DJ004], for which, in the assay on Rac1 [1], the “Rac1 Activation” value was “yes”.

As for `CC(C)(C)[Si](C)(C)Oc1cccc(N/C=C\C(=O)c2ccccc2)c1` [DJ014], in the assay on Rac1 [1], the “Rac1 Activation” value is on record as “yes”.

On to `O=C(/C=C\NCc1ccco1)c1ccccc1` [DJ018], for which the “Rac1 Activation” value in the assay with Rac1 [1] is “no”.

For `Cc1cccc(C(=O)/C=C\Nc2cccc(C(F)(F)F)c2)c1` [DJ033], in assay [2], 950 nM corresponded to half-maximal inhibition (IC50).

On to `O=C(/C=C\Nc1cccc(-c2ccccc2)c1)c1ccccc1` [DJ007], for which the “Rac1 Activation” value with Rac1 [1] was “no”.

`COc1cc(N/C=C\C(=O)c2ccccc2)cc(OC)c1` [DJ012]: the “Rac1 Activation” value in the assay on Rac1 [1] is “yes”.

As for `O=C(/C=C\Nc1cccc(F)c1)c1ccccc1` [DJ002], in the assay on Rac1 [1], the “Rac1 Activation” value is listed as “no”.

In the case of `CC(=O)c1cccc(N/C=C\C(=O)c2ccccc2)c1` [DJ006], the “Rac1 Activation” value in the assay on Rac1 [1] is “no”. Moreover, the IC50 in assay [2] was 3030 nM.

`CN(C)c1cccc(N/C=C\C(=O)c2ccccc2)c1` [DJ008]: the “Rac1 Activation” value with Rac1 [1] was “no”.

In the case of `COc1cccc(N/C=C\C(=O)c2ccccc2)c1` [DJ005], the “Rac1 Activation” value with Rac1 [1] was “no”.

Regarding `O=C(/C=C\Nc1cccc(O)c1)c1ccccc1` [DJ015], the “Rac1 Activation” value with Rac1 [1] was “yes”. Further, in assay [2], it took 1390 nM to reach half-maximal inhibition (IC50).

Regarding `O=C(/C=C\Nc1cc(F)cc(F)c1)c1ccccc1` [DJ009], the “Rac1 Activation” value in the assay with Rac1 [1] is recorded as “yes”. The same compound gave a 50% inhibitory concentration (IC50) in assay [2] of 1370 nM.

As for `O=C(/C=C\Nc1ccccc1)c1ccccc1` [DJ013], in the assay with Rac1 [1], the “Rac1 Activation” value is “yes”.

As to `O=C(/C=C\Nc1cc(C(F)(F)F)cc(C(F)(F)F)c1)c1ccccc1` [DJ030], in assay [2], the IC50 worked out at 1830 nM.

These data come from patent US10822299B2, “Compounds and methods for hematopoietic regeneration” (The Regents of the University of California, priority 2016, dated 2020).
